US8110575B2, “Compounds” (Boehringer Ingelheim International GmbH, priority 2007, dated 2012)

Target: T1, human CGRP receptor (Homo sapiens, UniProt O60894+Q16602)
T1 construct: SK-N-MC membranes (˜20 μg protein) are incubated for 180 minutes at ambient temperature; endogenous in cells; host or cells: SK-N-MC cells (membrane preparation)
Assay: Binding studies with SK-N-MC cells (expressing the human CGRP receptor)
Conditions: SK-N-MC membranes, 125I-iodotyrosyl-CGRP displacement
Description: A. Binding Studies with SK-N-MC Cells (Expressing the Human CGRP Receptor)
SK-N-MC membranes (˜20 μg protein) are incubated for 180 minutes at ambient temperature with 50 pM ^125I-iodotyrosyl-Calcitonin-Gene-Related Peptide and increasing concentrations of the test substances in a total volume of […] (assay buffer: 10 mM tris, 50 mM NaCl, 5 mM MgCl2, 1 mM EDTA, pH=7.4). The incubation is ended by rapid filtration through GF/B-glass fibre filters treated with polyethyleneimine (0.1%) using a cell harvester. The protein-bound radioactivity is measured using a gamma counter. Non-specific binding is defined as the bound radioactivity after the presence of 1 μM BIBN4096BS during incubation.
The concentration binding curves are analysed using computer-aided non-linear curve fitting.

T1 sequence (Q16602 23-461): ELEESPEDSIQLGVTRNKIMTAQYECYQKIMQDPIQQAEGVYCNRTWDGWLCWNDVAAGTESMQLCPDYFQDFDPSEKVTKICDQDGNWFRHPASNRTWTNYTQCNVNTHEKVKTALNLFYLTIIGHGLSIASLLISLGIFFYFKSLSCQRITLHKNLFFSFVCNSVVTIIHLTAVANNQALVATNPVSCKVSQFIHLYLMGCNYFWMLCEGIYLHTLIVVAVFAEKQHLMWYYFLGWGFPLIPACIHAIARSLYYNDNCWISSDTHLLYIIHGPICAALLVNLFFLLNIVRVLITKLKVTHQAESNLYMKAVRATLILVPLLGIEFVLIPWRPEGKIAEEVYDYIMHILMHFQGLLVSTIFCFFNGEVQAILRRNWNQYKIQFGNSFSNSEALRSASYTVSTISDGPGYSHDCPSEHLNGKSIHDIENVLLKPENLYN
T1 sequence (O60894 27-148): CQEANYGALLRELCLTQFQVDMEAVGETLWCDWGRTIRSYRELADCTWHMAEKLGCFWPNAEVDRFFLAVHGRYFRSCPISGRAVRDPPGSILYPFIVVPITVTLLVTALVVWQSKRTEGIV

In order of falling Ki:
1. O=C1Nc2ccccc2C2(CCN(c3cc(C(=O)N4CCc5ccccc54)ncn3)CC2)O1 [(3)]  535 nM
2. CN1C(=O)NC(=O)C12Cc1ccc(Nc3cc(C(=O)N4CCc5ccccc54)ncn3)cc1C2 (stereo not shown) [(9)]  132 nM
3. O=C(c1cc(Nc2ccc3c(c2)CC2(C3)C(=O)Nc3ncccc32)ncn1)N(CC(F)(F)F)c1ccccc1 (stereo not shown) [(6)]  120 nM
4. O=C(c1cc(Nc2ccc3c(c2)CC2(C3)C(=O)Nc3ncccc32)ncn1)N1CCc2ccccc21 (stereo not shown) [(1)]  15 nM
